Test results: patent publication US11470844B2, “Vespidae wasp repellent” (KINP CO., LTD, priority 2015, dated 2022)

Columns and labels:
[1] = system: Vespa simillima xanthoptera worker; experiment: Black ball nest disturbance, Experiment 2; format: in vivo; conditions: for number of worker on black ball hemispherical surface: new black ball; for repellent effect and action to suppress the aggression: in vivo
Description: A similar experiment to the above-described Example 2(2) was conducted against the same Vespa simillima xanthoptera nest of the above-described Experiment 1 on Oct. 31, 2014. The number of worker on the black spherical hemispherical surface counted every 30 seconds on the basis of the video image is shown in Table 5, and the picture of the video footage after 115 seconds is shown as FIG. 2. FIG. 2A is an image of the case where distilled water was used, FIG. 2B is an image of the case where 2-phenylethanol was used, and FIG. 2C is an image of the case where benzyl alcohol was used.

Apis mellifera worker = conditions: in vivo
Description: The experiment involving a Apis mellifera worker which was sucking nectar from a flower of Abelia planted at a bank of Noda pond located at Fuseishi-cho, Takamatsu City, Kagawa Prefecture was conducted on Jul. 22 to 24, 2015.
With respect to the experimental condition, first, distilled water was sprayed once on the worker which was sucking nectar or moving from a flower to a flower by using a sprayer, and then the inventors observed the behavior for 30 seconds. Next, benzyl alcohol, 2-phenylethanol or benzyl acetate was sprayed once on the same worker by using the sprayer having the same mass and the same volume, and then the inventors observed the behavior up to 30 seconds. The test liquid was judged to be “effective” in the case where the Apis mellifera worker on which the test liquid was sprayed did different action than normal activity to visit a flower during the observation time.

Vespa mandarinia worker [2] = experiment: Spray on Vespa mandarinia worker collecting sawthorn oak sap; format: in vivo, Vespa mandarinia japonica Radoszkowski; conditions: 10 workers; for behavior of workers after spraying: immediately started flapping, same time or a few seconds later; for Number of worker Effective / Number of worker No response: sprayed one time, observed up to 1 minute
Description: The experiment was conducted on a Vespa mandarinia japonica Radoszkowski worker which flew to a sawthorn oak tree bleeding sap and which collected the sap in Kagawa Prefecture Kinbuchi Forest Park in Takamatsu City Kagawa Prefecture from June to October, 2014 and from June to July, 2015.
Specifically, 100 mL of distilled water was enclosed in a plastic sprayer having a volume of 200 mL to be used as a control sprayer, and 100 mL of benzyl alcohol was enclosed in the same material and the same volume sprayer to be used as a test liquid sprayer. First, distilled water was sprayed one time to one Vespa mandarinia worker which was collecting sap at a sap bleeding part of a trunk of a sawthorn oak tree by using a control sprayer. […] Then, benzyl alcohol was sprayed one time by using a test liquid sprayer. Next, the workers were observed up to 1 minute. With respect to 2-phenylethanol, 3-phenylpropanol, 1-phenyl-2-prpanol and benzyl acetate, the spray test to a Vespa mandarinia worker collecting a sawthorn oak sap was conducted in the same condition.

Vespa mandarinia worker [3] = experiment: Black ball nest disturbance, Experiment 2 (new black ball, 30 s vibration); format: in vivo; conditions: for repellent effect: in vivo
Source text: In the above-described Experiment 1, it was observed that vibrating the black ball in contact with the nest entrance more strongly induces the attack behavior of the worker rather than vibrating the black ball in the air away from the nest. Accordingly, the attack situation of the worker was investigated by vibrating the black ball in contact with the entrance of the same Vespidae wasp nest used in the above-described Experiment 1 for 30 seconds on Oct. 31, 2014. Specifically, the attack situation of the worker was observed similarly to the above-described Experiment 1 except for using a new black ball without using the black ball on which alarm pheromone was adsorbed even in the case of the test liquid and using 2-phenylethanol or benzyl alcohol as the test liquid by vibrating the black ball in contact with the entrance of the same nest for 30 seconds.
As a result, in the case of the black ball on which distilled water was sprayed, it was difficult to count the total number of the workers which flew to and alighted on the black ball for attack, since the black ball was continued to be attacked by the workers for 150 seconds from the end of the vibration almost without interruption and the number of attacking worker was clearly larger in comparison with the case of the above-described Experiment 1. The inventors therefore counted the number of the worker which could be observed on the hemispherical surface of the black ball from the video image at intervals of 30 seconds from the end of the disturbance. In addition, a picture of the video footage 145 seconds after the end of the nest entrance disturbance is shown as FIG. 1. FIG. 1A is an image of the case where distilled water was used, FIG. 1B is an image of the case where 2-phenylethanol was used, and FIG. 1C is an image of the case where benzyl alcohol was used.

[4] = system: Vespa analis insularis (Fabricius) nest; experiment: Spraying on nest surface, philopatry and homing, Experiment 2; format: in vivo
Source text: The inventors investigated the worker's philopatry and homing circumstance to the nest as follows. After the above-described experiment 1, benzyl alcohol was intermittently sprayed three times on the entire surface of the same nest of Vespa analis insularis (Fabricius) by using a sprayer equipped with a nozzle having a length of 1.5 m. An adult wasp on the nest surface, worker entering and leaving the nest holes and worker coming close to the nest were shot with a video camera. The experiment was started at 14:01:30 and finished at 14:10. The numbers of the adult wasp on the nest surface and in the nest were counted immediately after the experiment. The number of adult wasp in the nest was counted by inserting the whole nest in a paper bag, sealing the paper bag, and then deconstructing the nest.

[5] = after first spray, 14:01:30 to 14:02:20
[6] = after second spray, 14:02:20 to 14:04:30
[7] = after third spray, 14:04:30 to 14:10:00

Structure (SMILES) | number of worker on black ball hemispherical surface ([1]; 30 s after disturbance) | number of worker on black ball hemispherical surface ([1]; 60 s after disturbance) | number of worker on black ball hemispherical surface ([1]; 90 s after disturbance) | number of worker on black ball hemispherical surface ([1]; 120 s after disturbance) | number of worker on black ball hemispherical surface ([1]; 150 s after disturbance) | repellent effect and action to suppress the aggression [1] | Number of worker Effective (Apis mellifera worker) | Number of worker No response (Apis mellifera worker) | behavior of workers after spraying (Vespa mandarinia worker [2]) | Number of worker Effective (Vespa mandarinia worker [2]) | Number of worker No response (Vespa mandarinia worker [2]) | number of worker on hemispherical surface of black ball (Vespa mandarinia worker [3]; 30 s after disturbance) | number of worker on hemispherical surface of black ball (Vespa mandarinia worker [3]; 60 s after disturbance) | number of worker on hemispherical surface of black ball (Vespa mandarinia worker [3]; 90 s after disturbance) | number of worker on hemispherical surface of black ball (Vespa mandarinia worker [3]; 120 s after disturbance) | number of worker on hemispherical surface of black ball (Vespa mandarinia worker [3]; 150 s after disturbance) | repellent effect (Vespa mandarinia worker [3]) | other results
OCCc1ccccc1 [2-Phenylethanol, 2-phenylethanol] | 1 | 0 | 0 | 0 | 0 | strong equivalent to or higher than the repellent effect on Vespa mandarinia | 0/10 | 10/10 | flew away from the sap bleeding part | 10/10 | 0/10 | 0 | 0 | 0 | 0 | 0 | very strong | 
OCc1ccccc1 [Benzyl alcohol, benzyl alcohol] | 0 | 0 | 0 | 0 | 0 | strong equivalent to or higher than the repellent effect on Vespa mandarinia | 0/10 | 10/10 | flew away from the sap bleeding part | 10/10 | 0/10 | 0 | 0 | 0 | 0 | 0 | very strong | effect on behavior of / harm to honeybee (Apis mellifera worker): does not effect on the behavior of an Apis mellifera worker; adult wasps on nest surface and in nest at the end of the experiment ([4]; 14:10, after three sprays): All of the adult wasps got away from the nest; Entered nest [4, 5]: 5; Flew away from nest [4, 5]: 15; Flew to and alighted on nest surface and then flew away [4, 5]: 1; Flew to and came close to nest surface and then flew away [4, 5]: 2; Entered nest [4, 6]: 0; Flew away from nest [4, 6]: 10; Flew to and alighted on nest surface and then flew away [4, 6]: 2; Flew to and came close to nest surface and then flew away [4, 6]: 6; Entered nest [4, 7]: 0; Flew away from nest [4, 7]: 2; Flew to and alighted on nest surface and then flew away [4, 7]: 4; Flew to and came close to nest surface and then flew away [4, 7]: 55
